Reference: patent publication US20190307893A1, “NANOVESICLES WITH PORPHYRIN-LIPID CONJUGATE CORE” (UNIVERSITY HEALTH NETWORK, priority 2016, published 2019)
“Also recorded” adds a separate entry of the source.

How the values were obtained:
Format in all cases: physicochemical
[1] = UV/visible absorption and circular dichroism of chlorin-loaded lipid nanovesicles
Description: (§1) Z-average size and polydispersity of the samples in PBS were measured using a Malvern ZS90 (Instruments, UK). Absorption spectra of each sample was determined by UV spectroscopy (CARY 50 UV/Vis S3 Spectrophotometer, Varian Inc.). Absorption spectra of intact samples was measured in PBS, and that of detergent disrupted samples was measured after adding Triton-X100 so that the final detergent concentration was 0.1% v/v.
(§2) Where F0 and Fdetergent are the integration of fluorescence intensity from 600 nm to 800 nm for intact and detergent-disrupted sample respectively. Circular dichroism spectra was measured in PBS and 0.1% Triton-X100 using a J-815 Circular Dichroism Spectrometer (JASCO Inc.).

[2] = Fluorescence properties and quenching of chlorin derivatives in lipid nanovesicles; settings: embedded within lipid nanovesicles; for Full width at half max: fluorescence
Description: Fluorescence measurements were carried out Fluoromax ut on a Fluoromax-4 spectrofluorometer (Horiba Jobin Yvon, NJ) Fluorescence spectra of intact and detergent disrupted state was measured by exciting samples at 556 nm with a 5 nm slit width and collecting fluorescence from 600 nm to 800 with a 5 nm slit width. Quenching efficiency was calculated by the following equation: […]
as §2

[3] = Dynamic light scattering size measurement of chlorin derivatives embedded in liposomes; settings: 20% chlorin derivatives embedded within liposomes
Description: Lipid film was prepared in the 12 mm×35 mm clear glass threaded vials (Fisher Scientific) by combining 20% of chlorin derivatives (either Zn-MeO-chlorin acid 7, Zn-vinyl-chlorin lipid, MeO-chlorin lipid, or Zn-MeO-chlorin lipid) with 75% DPPC and 5% DPPE-mPEG2000 dissolved in MeOH or chloroform. The lipid solutions were dried under a stream of nitrogen gas for 30 min and further dried under vacuum desiccation for at least 3 h before hydration. One milliliter phosphate buffered saline (PBS) was added to the lipid films and 10 freeze and thaw cycles was performed by sequentially freezing the sample in liquid nitrogen, followed by rapid thawing in a 70° C. water bath. Dispersed particles were then subjected to extrusion by passing samples 10 times through a high pressure extruder loaded with 100 nm polycarbonate filter membranes at 70° C.
as §1

[4] = Storage stability of nanoparticles at room temperature after freeze-thaw; settings: 10 days, PBS, after freeze-thaw rehydration
Description: The color of Zn-MeO-chlorin acid (7) and Zn-MeO-chlorinchlorin lipid (11) nanoparticles was monitored after 10 freeze and thaw cycles. Concentration of chlorin dyes in each sample was adjusted to 60 μM. Samples were stored in the dark at room temperature for 10 days.

[5] = UV/visible absorption of chlorin oleylamine loaded lipoprotein nanoparticles; settings: for Qy-band wavelength shift: intact lipoprotein nanoparticle in PBS vs monomeric form in methanol, 10:1 DMPC:dye
Description: Lipid film was prepared in 12 mm×75 mm clear glass threaded vials (Fisher Scientific) by combining 0.1 μmol (4, 10, 10, 13 or 17) and 1.0 μmol DMPC in chloroform. The lipid solutions were dried under a slow stream of nitrogen gas for 30 min and further dried under a higher stream for at least 1 h before hydration. One mL of phosphate buffered saline (PBS) was added to the dried lipid films and sonicated in a 47° C. water bath for 10 minutes immediately followed by Bioruptor at low frequency (30 kHz) for 30 cycles (30 s on/30 s off) at 40° C. R4F peptide (0.1 μmol; 1 mg/mL in PBS) was added into the rehydrated solution and the mixture was mixed gently at 4° C. overnight. The solution was centrifuged at 13 500 rpm for 20 min subsequently and filtered with a 0.1 μm membrane. Unbound peptide was removed and nanoparticle sample was concentrated using a 10 kDa membrane centrifugal filter (EMD Millipore) by two rounds of centrifugation at 4000 g for 7 min at 4° C.
The UV-Vis absorption spectra of lipoprotein nanoparticles with Zn-containing oleylamine compounds 4, 10 and 17 are shown in FIG. 14. The intact structures are labeled in green (solid line) and methanol-disrupted structures are labeled in black (dashed line).

[6] = 20% loading, intact nanovesicles

Molecule	ordered aggregation in the lipid bilayer ([1]; nanovesicles)	FL λmax [2] [nm]	Stokes Shift [2]	Full width at half max [2] [nm]	Z-average [3] [nm·days]	PDI (polydispersity index) [3]	Qy-band wavelength shift [5] [nm]	stability on storage (visible dispersion) [4]	other results
CCCCCCCCCCCCCCCC(=O)OCC(COP(=O)([O-])OCC[N+](C)(C)C)OC(=O)CC[C@@H]1c2nc(cc3[nH]c(cc4nc(cc5[nH]c6c2CC(=O)c6c5C)C(CC)=C4C)c(COC)c3C)[C@H]1C (some centres unmarked) [MeO-chlorin lipid, 3-Devinyl-3′-methoxymethyl-13^2-demethoxycarbonylpheophorbide-a lipid]	did not	676	10 nm	40	105 ± 1.6	–	–	–	–
Zinc 13^2-demethoxycarbonylpheophorbide-a lipid [Zn-vinyl-chlorin lipid]	did not	682	9 nm	21	101 ± 2.3	–	–	–	–
Zinc 3-Devinyl-3′-methoxymethyl-13^2-demethoxycarbonylpheophorbide-a lipid [Zn-MeO-chlorin lipid]	showed ordered aggregation	725	no appreciable Stokes' shift	15	96.0 ± 3.9	0.10 ± 0.04	–	remained visibly dispersed	CD spectra [1, 6]: bisignate spectra around the Qy band region; far red-shifted absorption peak [1, 6]: 725 nm; secondary peak red-shift from the monomer absorption [1, 6]: 3 nm; bathochromic shift in the lowest energy absorption band (Qy) ([1]; lipid nanovesicles vs monomeric state in methanol or 0.1% Triton X-100): 72 nm; effect of dye loading beyond 20% on spectra ([1]; loading titrated 1-30 mol % of total lipid): neither UV/Vis spectra nor CD spectra significantly changed; Stokes Shift ([2]; listed as Zn—MeO-chlorin lipid): 0 nm
CCC1=C(C)C2=NC1=Cc1c(C)c3c4[n]1[Zn][n]1c(c(C)c(COC)c1=C2)=CC1=NC(=C4CC3=O)[C@@H](CCC(=O)O)[C@@H]1C [Zn-MeO-chlorin acid, Zinc 3-devinyl-3′-methoxymethy-13^2-demethoxycarbonylpheophorbide-a]	–	664	1 nm	24	113.9 ± 9.6	> 0.3	–	flocculated after 10 days; also recorded: Precipitate was observed	shift in optical absorption / CD ([1]; nanovesicles, 1% loading for Zn-MeO-chlorin acid, 20% for chlorin lipids): did not demonstrate appreciable shift in optical absorption nor CD; PDI (polydispersity index) ([3]; listed as Zu—MeO-chlorin acid): 0.3 ± 0.2

More lines, main results first:

ordered aggregation in the lipid bilayer ([1]; nanovesicles)	FL λmax [2] [nm]	Stokes Shift [2]	Full width at half max [2] [nm]	Z-average [3] [nm·days]	PDI (polydispersity index) [3]	Qy-band wavelength shift [5] [nm]	Molecule	stability on storage (visible dispersion) [4]	other results
–	–	–	–	–	–	8	C=Cc1c(C)c2[n]3c1=CC1=NC(=Cc4c(C)c5c([n]4[Zn]3)C(=C3N=C(C=2)[C@@H](C)[C@@H]3CCC(=O)NCCCCCCCC/C=C\CCCCCCCC)CC5=O)C(CC)=C1C [Zn-vinyl-chlorin oleylamine, Zinc 13^2-demethoxycarbonylpheophorbide-a oleylamine]	–	–
–	–	–	–	–	–	61	CCCCCCCC/C=C\CCCCCCCCNC(=O)CC[C@@H]1C2=C3CC(=O)c4c(C)c5[n](c43)[Zn][n]3c(c(C)c(CO)c3=CC3=NC(=C5)C(CC)=C3C)=CC(=N2)[C@H]1C [Zn—OH-chlorin oleylamine, Zinc 3-Devinyl-3^1-hydroxyl-13^2-demethoxycarbonylpheophorbide-a oleylamine]	–	absorption when nanostructures disrupted ([5]; lipoprotein nanoparticles, disrupted): 654 nm; absorption of loaded (intact) nanoparticles ([5]; lipoprotein nanoparticles, intact): 715 nm
